Reference: patent US11723540B2, “Device and method for in vivo photoacoustic diagnosis and photothermal purging of infected blood” (priority 2012, dated 2023)

Legend:
[1] = tested on: B16F10 cultured mouse melanoma cells; format: cell-based
Description: B16F10 cultured mouse melanoma cells (ATCC, Rockville, Md.) were used in this experiment. The cells were maintained using standard procedures (Ara et al. 1990, Weight et al. 2006, Zharov et al. 2006), including serial passage in phenol-free RPMI 1640 medium (Invitrogen, Carlsbad, Calif.) supplemented with 10% fetal bovine serum (FBS, Invitrogen). For comparison to the detection of unlabeled melanoma cells, the endogenous cell absorption was increased by staining with ICG (Akorn Inc., USA), a strongly absorbent dye in the NIR range, for 30 min at 37° C. and in the presence of 5% CO2.

[2] = mouse, in vivo
Description: In this experiment, a prototype PAFC system was used to detect Lymphazurin circulating in the blood vessels of a mouse ear.
The prototype PAFC system was built on the platform of an Olympus BX51 microscope (Olympus America, Inc.) and a tunable optical parametric oscillator (OPO) pumped by an Nd:YAG laser (Lotis Ltd., Minsk, Belarus). […] Laser energy was directed to the blood vessels using a conventional lens, or an optical fiber. PA waves emitted by the cells were detected by ultrasound transducers (unfocused Panametrics model XMS-310, 10 MHz; focused cylindrical Panametrics model V312-SM, 10 MHz, focused lengths of 6 mm, 12 mm, and 55 mm; and customized resonance transducers), and the ultrasound transducer outputs were conditioned by an amplifier (Panametrics model 5662, bandwidth 50 kHz-5 MHz; Panametrics model 5678, bandwidth 50 kHz-40 MHz; customized amplifiers with adjustable high and low frequency boundaries in the range to 50-200 KHz and 1-20 MHz, respectively; resonance bandwidth of 0.3-1.0 MHz). The amplifier output signals were recorded with a Boxcar data acquisition system (Stanford Research Systems, Inc.) and a Tektronix TDS 3032B oscilloscope, and were analyzed using standard and customized software. […] The signals from the oscilloscope screen were recorded with a digital camera (Sony, Inc.) and video camera (JVC, Inc.). […]

Row | clearance of Lymphazurin from the blood [2] [min] | SMILES | toxicity after labeling (trypan blue exclusion) [1]
1 |  | CC1(C)C(/C=C/C=C/C=C/C=C2\N(CCCCS(=O)(=O)O)c3ccc4ccccc4c3C2(C)C)=[N+](CCCCS(=O)(=O)[O-])c2ccc3ccccc3c21 [ICG, Indocyanine Green] | No toxicity was observed
2 | 50 | CCN(CC)c1ccc(C(=C2C=CC(=[N+](CC)CC)C=C2)c2cc(S(=O)(=O)[O-])ccc2S(=O)(=O)[O-])cc1.[Na+] [Lymphazurin, Isosulfan Blue] | 
